Format in all cases: in vivo
Assay [1] concerns Stagonospora nodorum (also known as Septoria nodorum). Description: Test B: preventive spray on wheat seedlings, Stagonospora nodorum (wheat glume blotch), visual disease rating. As to conditions: 100 = 100% disease control, 0 = no control, unmarked values. An excerpt:
(§1) General protocol for preparing test suspensions for Tests A-E: the test compounds were first dissolved in acetone in an amount equal to 3% of the final volume and then suspended at the desired concentration (in ppm) in acetone and purified water (50/50 mix by volume) containing 250 ppm of the surfactant Trem® 014 (polyhydric alcohol esters). The resulting test suspensions were then used in Tests A-E. Compounds were sprayed with either a 40 ppm or 10 ppm (*) test suspension to the point of run-off on the test plants which is the equivalent of a rate of 160 g ai/ha or 40 g ai/ha, respectively.
The test suspension was sprayed to the point of run-off on wheat seedlings. The following day the seedlings were inoculated with a spore suspension of Stagonospora nodorum (also known as Septoria nodorum; the causal agent of wheat glume blotch) and incubated in a saturated atmosphere at 20° C. for 48 h, and then moved to a growth chamber at 20° C. for 6 days, after which time visual disease ratings were made.
(§2) Results for Tests A-E are given in Table A. In the Table, a rating of 100 indicates 100% disease control and a rating of 0 indicates no disease control (relative to the controls). A dash (-) indicates no test results.

The subject of assay [2] is Puccinia recondite f. sp. tritici. In words: Test D: preventive spray on wheat seedlings, Puccinia recondite f. sp. tritici (wheat leaf rust), visual disease rating. As to conditions: 100 = 100% disease control, 0 = no control, unmarked values.
Text: as §1
The test suspension was sprayed to the point of run-off on wheat seedlings. The following day the seedlings were inoculated with a spore suspension of Puccinia recondite f. sp. tritici; (the causal agent of wheat leaf rust) and incubated in a saturated atmosphere at 20° C. for 24 h, and then moved to a growth chamber at 20° C. for 6 days, after which time visual disease ratings were made.
as §2

In the next assay the test system is Septoria tritici. Description: Test C: preventive spray on wheat seedlings, Septoria tritici (wheat leaf blotch), visual disease rating. As to conditions: 100 = 100% disease control, 0 = no control, unmarked values.
Text: as §1
The test suspension was sprayed to the point of run-off on wheat seedlings. The following day the seedlings were inoculated with a spore suspension of Septoria tritici (the causal agent of wheat leaf blotch) and incubated in a saturated atmosphere at 24° C. for 48 h, and then moved to a growth chamber at 20° C. for 21 days, after which time visual disease ratings were made.
as §2

For the next assay, the system named is Botrytis cinerea. Description: Test A: preventive spray on tomato seedlings, Botrytis cinerea (gray mold), visual disease rating. The note with it: 100 = 100% disease control, 0 = no control relative to controls, unmarked values; for pest or weed control at 40 µg/mL, 160 g/ha: 96 h.
Text: as §1
The test suspension was sprayed to the point of run-off on tomato seedlings. The following day the seedlings were inoculated with a spore suspension of Botrytis cinerea (the causal agent of gray mold on many crops) and incubated in a saturated atmosphere at 20° C. for 48 h, and moved to a growth chamber at 27° C. for 2 days, after which time visual disease ratings were made.
as §2

The test system of assay [3] is Erysiphe graminis f. sp. tritici. In words: Test E: preventive spray on wheat seedlings, Erysiphe graminis f. sp. tritici (wheat powdery mildew), visual disease rating. As to conditions: 100 = 100% disease control, 0 = no control, unmarked values.
Text: as §1
The test suspension was sprayed to the point of run-off on wheat seedlings. The following day the seedlings were inoculated with a spore dust of Erysiphe graminis f. sp. tritici, (the causal agent of wheat powdery mildew) and incubated in a growth chamber at 20° C. for 8 days, after which time visual disease ratings were made.
as §2

For the molecule “3-(trifluoromethyl)-N-[2-[6-[3-(trifluoromethyl)-1H-pyrazol-1-yl]-3-pyridazinyl]phenyl]-2-pyridinecarboxamide [Compound 59]”, the “Test B disease control rating” value in assay [1] worked out at 100%. In addition, the “Test D disease control rating” value in assay [2] is 100%. For the same molecule, the “Test C disease control rating” value with Septoria tritici amounted to 100%. Besides, the “Test A disease control rating” value in the assay with Botrytis cinerea is on record as 100%. The “Test E disease control rating” value in assay [3] is 99%.

As to `O=C(Nc1ccccc1-c1ccc(C2=NOC(c3ccc(F)cc3)C2)nc1)c1ncccc1C(F)(F)F` (racemic) [compound 6], in assay [1], the “Test B disease control rating” value was 100%. Further, the “Test D disease control rating” value in assay [2] is reported as 100%. In addition, the “Test C disease control rating” value in the assay on Septoria tritici is recorded as 99%. Also, in the assay on Botrytis cinerea, the “Test A disease control rating” value came out at 99%. Also, the “Test E disease control rating” value in assay [3] was 0%.

Take `O=C(Nc1ccccc1-c1ccc(C2=NOC(c3cccc(F)c3)C2)nc1)c1ncccc1C(F)(F)F` (racemic) [compound 17]: the “Test B disease control rating” value in assay [1] was 100%. Further, in assay [2], the “Test D disease control rating” value worked out at 99%. The “Test C disease control rating” value in the assay with Septoria tritici was 100%. In addition, the “Test A disease control rating” value in the assay with Botrytis cinerea is given as 98%. The “Test E disease control rating” value in assay [3] came out at 0%.

With `COc1cccc(C2CC(c3ccc(-c4ccccc4NC(=O)c4ncccc4C(F)(F)F)cn3)=NO2)c1` (racemic) [compound 18], in assay [1], the “Test B disease control rating” value was found to be 100%. For the same molecule, the “Test D disease control rating” value in assay [2] is recorded as 99%. The “Test C disease control rating” value in the assay on Septoria tritici came out at 100%. The “Test A disease control rating” value with Botrytis cinerea worked out at 96%. Further, the “Test E disease control rating” value in assay [3] came to 0%.

For `O=C(Nc1ccccc1-c1ccc(C2=NOC(c3cc(F)cc(F)c3)C2)nc1)c1ncccc1C(F)(F)F` (racemic) [compound 19], the “Test B disease control rating” value in assay [1] is reported as 100%. Besides, the “Test D disease control rating” value in assay [2] came to 100%. Moreover, the “Test C disease control rating” value in the assay with Septoria tritici was determined as 100%. Further, the “Test A disease control rating” value in the assay on Botrytis cinerea amounted to 98%. In addition, in assay [3], the “Test E disease control rating” value worked out at 87%.

Turning to `COc1cc(OC)cc(C2CC(c3ccc(-c4ccccc4NC(=O)c4ncccc4C(F)(F)F)cn3)=NO2)c1` (racemic) [compound 20], the “Test B disease control rating” value in assay [1] is given as 100%. Also, the “Test D disease control rating” value in assay [2] was found to be 99%. In addition, in the assay on Septoria tritici, the “Test C disease control rating” value came out at 96%. In addition, in the assay on Botrytis cinerea, the “Test A disease control rating” value is recorded as 89%. Moreover, in assay [3], the “Test E disease control rating” value stood at 0%.

In the assay with Botrytis cinerea, `O=C(Nc1ccccc1-c1ccc(-n2ccc(C(F)(F)F)n2)nn1)c1ncccc1C(F)(F)F` [Compound 59, 3-(trifluoromethyl)-N-[2-[6-[3-(trifluoromethyl)-1H-pyrazol-1-yl]-3-pyridazinyl]phenyl]-2-pyridinecarboxamide] showed a pest or weed control at 40 µg/mL, 160 g/ha of 0%.

`O=C(Nc1ccccc1-c1cnc(-n2cc(Cl)cn2)c(Cl)c1)c1ncccc1C(F)(F)F` [Compound 61, N-[2-[5-chloro-6-[4-chloro-1H-pyrazol-1-yl]-3-pyridinyl]phenyl]-3-(trifluoromethyl)-2-pyridinecarboxamide] returned a pest or weed control at 40 µg/mL, 160 g/ha with Botrytis cinerea of 41%.

In the assay on Botrytis cinerea, `Cn1cc(C(=O)Nc2ccccc2-c2cnc(-n3ccc(C(F)(F)F)n3)c(F)c2)c(C(F)F)n1` [Compound 68, 3-(difluoromethyl)-N-[2-[5-fluoro-6-[3-(trifluoromethyl)-1H-pyrazol-1-yl]-3-pyridinyl]phenyl]-1-methyl-1H-pyrazole-4-carboxamide] showed a pest or weed control at 40 µg/mL, 160 g/ha of 94%.

Molecule `CC(Cc1ccc(-n2ccc(C(F)(F)F)n2)nc1)NC(=O)c1cn(C)nc1C(F)F` (centres unmarked) [Compound 83, 3-(difluoromethyl)-1-methyl-N-[1-methyl-2-[6-[3-(trifluoromethyl)-1H-pyrazol-1-yl]-3-pyridinyl]ethyl]-1H-pyrazole-4-carboxamide] gave a pest or weed control at 40 µg/mL, 160 g/ha in the assay with Botrytis cinerea of 99%.

Regarding `CC(Cc1ccc(-n2ccc(C(F)(F)F)n2)nc1)NC(=O)c1ncccc1C(F)(F)F` (centres unmarked) [Compound 84, N-[1-methyl-2-[6-[3-(trifluoromethyl)-1H-pyrazol-1-yl]-3-pyridinyl]ethyl]-3-(trifluoromethyl)-2-pyridinecarboxamide], in the assay on Botrytis cinerea, the pest or weed control at 40 µg/mL, 160 g/ha is 66%.

In the case of `Cn1cc(C(=O)Nc2ccccc2-c2ccc(-n3cc(-c4cccc(F)c4)cn3)nc2)c(C(F)F)n1` [compound 5], the “Test B disease control rating” value in assay [1] came out at 100%. Besides, the “Test D disease control rating” value in assay [2] came to 100%. Also, the “Test C disease control rating” value with Septoria tritici is on record as 100%. Moreover, in the assay on Botrytis cinerea, the “Test A disease control rating” value was 100%. Further, in assay [3], the “Test E disease control rating” value is 99%.

Take `Cn1cc(C(=O)Nc2ccccc2-c2ccc(-n3cc(-c4ccccc4F)cn3)nc2)c(C(F)F)n1` [compound 7]: the “Test B disease control rating” value in assay [1] is given as 100%. Moreover, the “Test D disease control rating” value in assay [2] turned out to be 100%. In the assay with Septoria tritici, the “Test C disease control rating” value worked out at 100%. In addition, the “Test A disease control rating” value in the assay with Botrytis cinerea was 100%. Moreover, the “Test E disease control rating” value in assay [3] turned out to be 97%.

For `COc1ccccc1-c1cnn(-c2ccc(-c3ccccc3NC(=O)c3cn(C)nc3C(F)F)cn2)c1` [compound 8], the “Test B disease control rating” value in assay [1] is 99%. Further, in assay [2], the “Test D disease control rating” value worked out at 100%. The “Test C disease control rating” value in the assay on Septoria tritici is listed as 99%. The “Test A disease control rating” value in the assay on Botrytis cinerea came to 99%. The “Test E disease control rating” value in assay [3] was determined as 99%.

Regarding `Cn1cc(C(=O)Nc2ccccc2-c2ccc(-n3ccc(-c4cc(F)cc(F)c4)n3)nc2)c(C(F)F)n1` [compound 89], the “Test B disease control rating” value in assay [1] amounted to 0%. Also, in assay [2], the “Test D disease control rating” value is on record as 100%. In the assay with Botrytis cinerea, the “Test A disease control rating” value was determined as 75%. Further, in assay [3], the “Test E disease control rating” value worked out at 79%.

As for `Cn1cc(C(=O)Nc2ccccc2-c2ccc(-n3ccc(-c4ccccc4F)n3)nc2)c(C(F)F)n1` [compound 90], in assay [1], the “Test B disease control rating” value came to 46%. Further, the “Test D disease control rating” value in assay [2] came to 100%. Moreover, the “Test A disease control rating” value with Botrytis cinerea came out at 93%. Besides, the “Test E disease control rating” value in assay [3] is on record as 72%.

In the case of `COc1cc(OC)cc(-c2ccn(-c3ccc(-c4ccccc4NC(=O)c4cn(C)nc4C(F)F)cn3)n2)c1` [compound 91], the “Test B disease control rating” value in assay [1] was found to be 33%. Further, the “Test D disease control rating” value in assay [2] came to 100%. Also, the “Test A disease control rating” value with Botrytis cinerea was 87%. For the same molecule, the “Test E disease control rating” value in assay [3] is listed as 56%.

For `Cc1nc(C(F)(F)F)c(C(=O)Nc2ccccc2-c2ccc(-n3ccc(C(F)(F)F)n3)nc2)s1` [compound 92], in assay [1], the “Test B disease control rating” value came to 60%. In addition, the “Test D disease control rating” value in assay [2] turned out to be 100%. The “Test A disease control rating” value in the assay with Botrytis cinerea is on record as 0%. Besides, the “Test E disease control rating” value in assay [3] amounted to 98%.

Take `Cc1ccsc1C(=O)Nc1ccccc1-c1ccc(-n2ccc(C(F)(F)F)n2)nc1` [compound 93]: the “Test B disease control rating” value in assay [1] is on record as 97%. Moreover, in assay [2], the “Test D disease control rating” value worked out at 100%. In addition, the “Test A disease control rating” value with Botrytis cinerea turned out to be 0%. Moreover, the “Test E disease control rating” value in assay [3] worked out at 99%.

Take `Cn1cc(C(=O)Nc2ccccc2-c2ccc(-n3ccc(C(F)(F)F)n3)nc2)c(C(F)(F)F)n1` [compound 94]: the “Test B disease control rating” value in assay [1] is 98%. The “Test D disease control rating” value in assay [2] is 100%. The “Test A disease control rating” value in the assay with Botrytis cinerea is recorded as 0%. For the same molecule, the “Test E disease control rating” value in assay [3] was determined as 99%.

Regarding `Cc1ccsc1C(=O)Nc1ccccc1-c1cnc(-n2ccc(C(F)(F)F)n2)c(Cl)c1` [compound 95], the “Test B disease control rating” value in assay [1] is 100%. In assay [2], the “Test D disease control rating” value stood at 100%. Also, the “Test A disease control rating” value in the assay on Botrytis cinerea is on record as 0%. The “Test E disease control rating” value in assay [3] amounted to 98%.

In the case of `O=C(Nc1ccccc1-c1cnc(-n2ccc(C(F)(F)F)n2)c(Cl)c1)c1nccnc1Cl` [compound 96], the “Test B disease control rating” value in assay [1] is reported as 60%. For the same molecule, the “Test D disease control rating” value in assay [2] was 99%. Also, the “Test A disease control rating” value in the assay with Botrytis cinerea is on record as 0%. Besides, the “Test E disease control rating” value in assay [3] is 96%.

As for `Cn1cc(C(=O)Nc2ccccc2-c2cnc(-n3ccc(C(F)(F)F)n3)c(Cl)c2)c(C(F)(F)F)n1` [compound 97], the “Test B disease control rating” value in assay [1] turned out to be 87%. The “Test D disease control rating” value in assay [2] is on record as 100%. In the assay on Botrytis cinerea, the “Test A disease control rating” value is given as 0%. Besides, the “Test E disease control rating” value in assay [3] is listed as 99%.

The term pest or weed control denotes how far the test organism was held down.

The values are drawn from patent US9730447B2, “Fungicidal amides” (E I DU PONT DE NEMOURS AND COMPANY, priority 2013, dated 2017).
